Source: ChEMBL document CHEMBL5325418, “Studies on diketopiperazine and dipeptide analogs as opioid receptor ligands” (Eur J Med Chem, 2023)
Square brackets hold non-standard residues; d marks the D form. Peptide text beside a SMILES is read from it. * marks the point of attachment. ξ: configuration not given here. ξPhe(3-OMe) = COc1cccc(CC(N)C(=O)O)c1; Nphe = O=C(O)CNCc1ccccc1; Boc = CC(C)(C)OC(=O)*

Target: Kappa-type opioid receptor (Homo sapiens, UniProt P41145)
Test: Displacement of [3H]U69593 from human KOR expressed in HEK cell membranes assessed as inhibition constant incubated for 60 mins by microbeta 2 scintillation counting method
Design: species or system Cell membrane
Settings: not given

Kappa-type opioid receptor, sequence (P41145 whole entry): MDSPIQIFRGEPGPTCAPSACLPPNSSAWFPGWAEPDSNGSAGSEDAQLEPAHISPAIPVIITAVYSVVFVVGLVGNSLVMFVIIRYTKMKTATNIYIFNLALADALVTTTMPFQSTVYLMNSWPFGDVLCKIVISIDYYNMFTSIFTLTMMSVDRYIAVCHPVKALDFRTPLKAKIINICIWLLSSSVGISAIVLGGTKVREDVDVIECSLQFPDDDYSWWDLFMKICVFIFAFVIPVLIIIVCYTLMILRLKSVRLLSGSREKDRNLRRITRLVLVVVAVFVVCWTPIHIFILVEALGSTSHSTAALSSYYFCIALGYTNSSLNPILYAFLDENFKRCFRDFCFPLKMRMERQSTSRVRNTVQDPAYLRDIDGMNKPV

Compound | Ki
COc1cccc(CC2NC(=O)CN(Cc3ccccc3)C2=O)c1 (stereo unspecified) | > 10 µM
COc1cccc(CC2NC(=O)CN(Cc3cccnc3)C2=O)c1I (stereo unspecified) | > 10 µM
CNCC(=O)NC(Cc1cccc(OC)c1I)C(=O)OC (stereo unspecified) | > 10 µM
COc1cccc(CC2NC(=O)CCN(Cc3ccccc3)C2=O)c1I (stereo unspecified) | > 10 µM
COC(=O)C(Cc1cccc(OC)c1)NC(=O)CN(Cc1ccccc1)C(=O)OC(C)(C)C (stereo unspecified) (Boc-[Nphe]-[ξPhe(3-OMe)]-OMe) | > 10 µM

Stronger by Ki, values ahead:

Ki | Compound
0.19 µM | COC(=O)C(Cc1cccc(OC)c1C)NC(=O)CNCc1ccccc1 (stereo unspecified)
1.44 µM | COc1cccc(CC(NC(=O)CNCc2ccccc2)C(=O)OC(C)C)c1I (stereo unspecified)
5.11 µM | COc1cccc(CC2NC(=O)CN(CCc3ccccc3)C2=O)c1I (stereo unspecified)
0.277 µM | COC(=O)C(Cc1cccc(OC)c1I)NC(=O)CNCc1ccccc1 (stereo unspecified)
0.6 µM | COc1cccc(CC2NC(=O)CN(Cc3ccccc3)C2=O)c1C (stereo unspecified)

Target: Mu-type opioid receptor (Homo sapiens, UniProt P35372)
Test: Displacement of [3H]DAMGO from human MOR expressed in CHO cell membranes assessed as inhibition constant incubated for 60 mins by microbeta 2 scintillation counting method
Design: species or system Cell membrane
Settings: not given

Mu-type opioid receptor, sequence (P35372 whole entry): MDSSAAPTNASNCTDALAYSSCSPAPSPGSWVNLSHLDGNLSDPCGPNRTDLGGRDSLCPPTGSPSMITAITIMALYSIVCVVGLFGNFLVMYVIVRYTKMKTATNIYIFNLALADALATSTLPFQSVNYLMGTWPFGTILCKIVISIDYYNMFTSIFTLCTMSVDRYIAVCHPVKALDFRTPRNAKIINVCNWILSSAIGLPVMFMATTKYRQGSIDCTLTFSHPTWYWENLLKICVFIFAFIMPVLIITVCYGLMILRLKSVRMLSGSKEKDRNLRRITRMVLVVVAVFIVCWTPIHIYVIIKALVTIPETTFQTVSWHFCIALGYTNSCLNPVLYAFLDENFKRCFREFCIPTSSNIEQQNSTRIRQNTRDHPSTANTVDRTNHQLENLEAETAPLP

Compound | Ki
COc1cccc(CC2NC(=O)CN(Cc3ccccc3)C2=O)c1 (stereo unspecified) | > 10 µM
COc1cccc(CC2NC(=O)CN(Cc3cccnc3)C2=O)c1I (stereo unspecified) | > 10 µM
CNCC(=O)NC(Cc1cccc(OC)c1I)C(=O)OC (stereo unspecified) | > 10 µM
COc1cccc(CC2NC(=O)CCN(Cc3ccccc3)C2=O)c1I (stereo unspecified) | > 10 µM
COC(=O)C(Cc1cccc(OC)c1)NC(=O)CN(Cc1ccccc1)C(=O)OC(C)(C)C (stereo unspecified) (Boc-[Nphe]-[ξPhe(3-OMe)]-OMe) | > 10 µM

The next lines start with the values.

Ki | Compound
> 10 µM | COC(=O)C(Cc1cccc(OC)c1C)NC(=O)CNCc1ccccc1 (stereo unspecified)
> 10 µM | COc1cccc(CC(NC(=O)CNCc2ccccc2)C(=O)OC(C)C)c1I (stereo unspecified)
> 10 µM | COc1cccc(CC2NC(=O)CN(CCc3ccccc3)C2=O)c1I (stereo unspecified)
> 10 µM | COC(=O)C(Cc1cccc(OC)c1I)NC(=O)CNCc1ccccc1 (stereo unspecified)
> 10 µM | COc1cccc(CC2NC(=O)CN(Cc3ccccc3)C2=O)c1C (stereo unspecified)

Target: Delta-type opioid receptor (Homo sapiens, UniProt P41143)
Test: Displacement of [3H]DADLE from human DOR expressed in CHO cell membranes assessed as inhibition constant incubated for 60 mins by microbeta 2 scintillation counting method
Design: species or system Cell membrane
Settings: not given

Delta-type opioid receptor, sequence (P41143 whole entry): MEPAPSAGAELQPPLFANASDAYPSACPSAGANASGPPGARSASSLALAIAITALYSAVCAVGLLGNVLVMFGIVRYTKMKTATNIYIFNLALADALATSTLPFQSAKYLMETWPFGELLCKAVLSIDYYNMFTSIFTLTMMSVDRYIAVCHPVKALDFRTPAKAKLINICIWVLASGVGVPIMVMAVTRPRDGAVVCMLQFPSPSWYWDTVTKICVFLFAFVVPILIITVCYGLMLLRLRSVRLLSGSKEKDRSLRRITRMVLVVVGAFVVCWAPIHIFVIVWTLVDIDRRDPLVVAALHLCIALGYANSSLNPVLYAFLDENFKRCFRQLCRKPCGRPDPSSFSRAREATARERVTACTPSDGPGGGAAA

Compound | Ki
COc1cccc(CC2NC(=O)CN(Cc3ccccc3)C2=O)c1 (stereo unspecified) | > 10 µM
COc1cccc(CC2NC(=O)CN(Cc3cccnc3)C2=O)c1I (stereo unspecified) | > 10 µM
CNCC(=O)NC(Cc1cccc(OC)c1I)C(=O)OC (stereo unspecified) | > 10 µM
COc1cccc(CC2NC(=O)CCN(Cc3ccccc3)C2=O)c1I (stereo unspecified) | > 10 µM
COC(=O)C(Cc1cccc(OC)c1)NC(=O)CN(Cc1ccccc1)C(=O)OC(C)(C)C (stereo unspecified) (Boc-[Nphe]-[ξPhe(3-OMe)]-OMe) | > 10 µM

Further lines, results first:

Ki | Compound
> 10 µM | COC(=O)C(Cc1cccc(OC)c1C)NC(=O)CNCc1ccccc1 (stereo unspecified)
> 10 µM | COc1cccc(CC(NC(=O)CNCc2ccccc2)C(=O)OC(C)C)c1I (stereo unspecified)
> 10 µM | COc1cccc(CC2NC(=O)CN(CCc3ccccc3)C2=O)c1I (stereo unspecified)
> 10 µM | COC(=O)C(Cc1cccc(OC)c1I)NC(=O)CNCc1ccccc1 (stereo unspecified)
> 10 µM | COc1cccc(CC2NC(=O)CN(Cc3ccccc3)C2=O)c1C (stereo unspecified)

Species on record: Homo sapiens
Test: Selectivity ratio of Ki for displacement of [3H]DAMGO from human MOR expressed in CHO cell membranes to Ki for displacement of [3H]U69593 from human KOR expressed in HEK cell membranes
Settings: not given

Compound | Ratio Ki
COC(=O)C(Cc1cccc(OC)c1C)NC(=O)CNCc1ccccc1 (stereo unspecified) | > 53
COc1cccc(CC(NC(=O)CNCc2ccccc2)C(=O)OC(C)C)c1I (stereo unspecified) | > 7
COc1cccc(CC2NC(=O)CN(CCc3ccccc3)C2=O)c1I (stereo unspecified) | > 1.9
COC(=O)C(Cc1cccc(OC)c1I)NC(=O)CNCc1ccccc1 (stereo unspecified) | > 36
COc1cccc(CC2NC(=O)CN(Cc3ccccc3)C2=O)c1C (stereo unspecified) | > 17

Species on record: Homo sapiens
Test: Selectivity ratio of Ki for displacement of [3H]DADLE from human DOR expressed in CHO cell membranes to Ki for displacement of [3H]U69593 from human KOR expressed in HEK cell membranes
Settings: not given

Compound | Ratio Ki
COC(=O)C(Cc1cccc(OC)c1C)NC(=O)CNCc1ccccc1 (stereo unspecified) | > 53
COc1cccc(CC(NC(=O)CNCc2ccccc2)C(=O)OC(C)C)c1I (stereo unspecified) | > 7
COc1cccc(CC2NC(=O)CN(CCc3ccccc3)C2=O)c1I (stereo unspecified) | > 1.9
COC(=O)C(Cc1cccc(OC)c1I)NC(=O)CNCc1ccccc1 (stereo unspecified) | > 36
COc1cccc(CC2NC(=O)CN(Cc3ccccc3)C2=O)c1C (stereo unspecified) | > 17

System: not listed separately
Test: Metabolic stability in human plasma assessed as half life at 100 uM measured upto 24 hrs by LC-MS/MS analysis
Type: ADME, cell-free
Settings: not given

Compound | half-life at 100 µM
COc1cccc(CC2NC(=O)CN(Cc3ccccc3)C2=O)c1C (stereo unspecified) | > 24 h

Same assay, conditions: 24 h, 100 µM

Compound | t1/2
COC(=O)C(Cc1cccc(OC)c1C)NC(=O)CNCc1ccccc1 (stereo unspecified) | 2.5282 h
COC(=O)C(Cc1cccc(OC)c1I)NC(=O)CNCc1ccccc1 (stereo unspecified) | 2.1762 h

System: not listed separately
Test: Metabolic stability in Beagle dog plasma assessed as half life at 100 uM measured upto 24 hrs by LC-MS/MS analysis
Type: ADME, cell-free, Canis lupus familiaris
Settings: 24 h, 100 µM

Compound | t1/2
COC(=O)C(Cc1cccc(OC)c1C)NC(=O)CNCc1ccccc1 (stereo unspecified) | 4.321 h
COC(=O)C(Cc1cccc(OC)c1I)NC(=O)CNCc1ccccc1 (stereo unspecified) | 3.6808 h

Same assay, conditions: Beagle

Compound | half-life at 100 µM
COc1cccc(CC2NC(=O)CN(Cc3ccccc3)C2=O)c1C (stereo unspecified) | > 24 h

System: not listed separately
Test: Metabolic stability in Sprague-Dawley rat plasma assessed as half life at 100 uM measured upto 24 hrs by LC-MS/MS analysis
Type: ADME, cell-free
Settings: not given

Compound | half-life at 100 µM
COC(=O)C(Cc1cccc(OC)c1C)NC(=O)CNCc1ccccc1 (stereo unspecified) | < 0.0167 h
COC(=O)C(Cc1cccc(OC)c1I)NC(=O)CNCc1ccccc1 (stereo unspecified) | < 0.0167 h
COc1cccc(CC2NC(=O)CN(Cc3ccccc3)C2=O)c1C (stereo unspecified) | > 24 h

System: not listed separately
Test: Metabolic stability in CD-1 mouse plasma assessed as half life at 100 uM measured upto 24 hrs by LC-MS/MS analysis
Type: ADME, cell-free
Settings: not given

Compound | half-life at 100 µM
COC(=O)C(Cc1cccc(OC)c1C)NC(=O)CNCc1ccccc1 (stereo unspecified) | < 0.0167 h
COC(=O)C(Cc1cccc(OC)c1I)NC(=O)CNCc1ccccc1 (stereo unspecified) | < 0.0167 h
COc1cccc(CC2NC(=O)CN(Cc3ccccc3)C2=O)c1C (stereo unspecified) | > 24 h

System: not listed separately
Test: Metabolic stability in Sprague-Dawley rat liver microsomes assessed as intrinsic clearance at 100 uM measured upto 24 hrs in presence of NADPH by LC-MS/MS analysis
Type: ADME, Microsome
Settings: not given

Compound | Intrinsic clearance
COC(=O)C(Cc1cccc(OC)c1C)NC(=O)CNCc1ccccc1 (stereo unspecified) | 1112 µL/min/mg
COC(=O)C(Cc1cccc(OC)c1I)NC(=O)CNCc1ccccc1 (stereo unspecified) | 1928 µL/min/mg
COc1cccc(CC2NC(=O)CN(Cc3ccccc3)C2=O)c1C (stereo unspecified) | 337.2 µL/min/mg

System: not listed separately
Test: Plasma protein binding in human assessed as bound fraction at 1 uM by LC-MS/MS analysis
Type: ADME, cell-free
Settings: not given

Compound | PPB
COC(=O)C(Cc1cccc(OC)c1C)NC(=O)CNCc1ccccc1 (stereo unspecified) | 89.36%
COC(=O)C(Cc1cccc(OC)c1I)NC(=O)CNCc1ccccc1 (stereo unspecified) | 90.8%
COc1cccc(CC2NC(=O)CN(Cc3ccccc3)C2=O)c1C (stereo unspecified) | 80.46%

System: not listed separately
Test: Plasma protein binding in dog assessed as bound fraction at 1 uM by LC-MS/MS analysis
Type: ADME, cell-free, Canis lupus familiaris
Settings: not given

Compound | PPB
COC(=O)C(Cc1cccc(OC)c1C)NC(=O)CNCc1ccccc1 (stereo unspecified) | 94.28%
COC(=O)C(Cc1cccc(OC)c1I)NC(=O)CNCc1ccccc1 (stereo unspecified) | 97.09%
COc1cccc(CC2NC(=O)CN(Cc3ccccc3)C2=O)c1C (stereo unspecified) | 86.67%

System: not listed separately
Test: Plasma protein binding in rat assessed as bound fraction at 1 uM by LC-MS/MS analysis
Type: ADME, cell-free
Settings: not given

Compound | PPB
COc1cccc(CC2NC(=O)CN(Cc3ccccc3)C2=O)c1C (stereo unspecified) | 76.34%

System: not listed separately
Test: Plasma protein binding in mouse assessed as bound fraction at 1 uM by LC-MS/MS analysis
Type: ADME, cell-free
Settings: not given

Compound | PPB
COc1cccc(CC2NC(=O)CN(Cc3ccccc3)C2=O)c1C (stereo unspecified) | 86.29%

System: BEND3
Test: Apparent permeability coefficient of the compound across blood brain barrier in mouse BEND3 cells at 10 ug/ml measured upto 120 mins by LC-MS/MS analysis
Type: functional, cell-based
Settings: dose 10.0 µg/ml

Compound | Pe
COC(=O)C(Cc1cccc(OC)c1C)NC(=O)CNCc1ccccc1 (stereo unspecified) | 6.25 10^-3cm/min
COC(=O)C(Cc1cccc(OC)c1I)NC(=O)CNCc1ccccc1 (stereo unspecified) | 8.75 10^-3cm/min
COc1cccc(CC2NC(=O)CN(Cc3ccccc3)C2=O)c1C (stereo unspecified) | 5.99 10^-3cm/min
